Test results from US20140134253A1, “DRY POWDER FOSFOMYCIN/TOBRAMYCIN FORMULATION FOR INHALATION” (Gilead Sciences, Inc., priority 2011, published 2014).

Tests used:
[1] = test system: E. coli, Proteus spp., Salmonella spp., Shigella spp., and S. marcescens; conditions: cited from earlier work
[2] = pH of the active ingredients in solution; assay type: physicochemical
From the text: Although simple amino acids and peptides have been used as excipients in pulmonary delivery, they exist as zwitterions with the free amine being protonated by the carboxylic acid. Since fosfomycin disodium and tobramycin base are basic with pHs of approximately 9.7, and 11 in solution, respectively, a formulation combining fosfomycin disodium and tobramycin base would be expected to be outside of the pH range to be tolerable for administration by inhalation to the pulmonary system. However, with the addition of NAL, the pH range in the lung upon administration of the dry powder formulation of the present invention is between about 7 to about 8, and preferably, from about 7.1 to about 7.7. Without the addition of NAL, a dry powder formulation combining fosfomycin disodium and tobramycin in the same molar ratios would be expected to produce a pH in the lung of about 8.2 (when the pH of tobramycin is adjusted with 2.5 molar equivalent of sulfuric acid) and a pH of about 9.1 (without pH adjustment with sulfuric acid).

[3] = aerosol administration; cited from earlier work
[4] = cited from earlier work

SMILES	fosfomycin concentration at which organisms are generally inhibited [1]	pH in solution [2]	sputum levels [3]	oral absorption ([4]; in vivo, po)	plasma half-life ([4]; parenteral administration, excreted by glomerular filtration)
C[C@@H]1O[C@@H]1P(=O)(O)O [Fosfomycin]	≤ 64 µg/mL	–	–	–	–
C[C@@H]1O[C@@H]1P(=O)(O)O [fosfomycin disodium]	–	approximately 9.7	–	–	–
NC[C@H]1O[C@H](O[C@H]2[C@H](O)[C@@H](O[C@H]3O[C@H](CO)[C@@H](O)[C@H](N)[C@H]3O)[C@H](N)C[C@@H]2N)[C@H](N)C[C@@H]1O [tobramycin, Tobramycin]	–	~11	≥ 1000 µg/mL	poorly absorbed orally	1 to 2 h
